Results: ChEMBL document CHEMBL5550199, “Rational In Silico Design of Selective TMPRSS6 Peptidomimetic Inhibitors via Exploitation of the S2 Subpocket” (J Med Chem, 2024)
≈ marks a conversion by molar mass, not a printed value. Calls of active or inactive are those of the source. No cut-off for these calls is given here.

Tests used:
Caco-2 [1] = experiment: Disruption of epithelial integrity in human Caco-2 cells assessed as change in TEER modulation after 8 days; type: functional, cell-based; conditions: Caco-2, 192 h
[2] = molecular target: T1, Suppressor of tumorigenicity 14 protein (Homo sapiens) (UniProt Q9Y5Y6); experiment: Inhibition of recombinant human Matriptase at 100 nM by Michaelis-Menten analysis relative to control
T1 sequence (whole entry): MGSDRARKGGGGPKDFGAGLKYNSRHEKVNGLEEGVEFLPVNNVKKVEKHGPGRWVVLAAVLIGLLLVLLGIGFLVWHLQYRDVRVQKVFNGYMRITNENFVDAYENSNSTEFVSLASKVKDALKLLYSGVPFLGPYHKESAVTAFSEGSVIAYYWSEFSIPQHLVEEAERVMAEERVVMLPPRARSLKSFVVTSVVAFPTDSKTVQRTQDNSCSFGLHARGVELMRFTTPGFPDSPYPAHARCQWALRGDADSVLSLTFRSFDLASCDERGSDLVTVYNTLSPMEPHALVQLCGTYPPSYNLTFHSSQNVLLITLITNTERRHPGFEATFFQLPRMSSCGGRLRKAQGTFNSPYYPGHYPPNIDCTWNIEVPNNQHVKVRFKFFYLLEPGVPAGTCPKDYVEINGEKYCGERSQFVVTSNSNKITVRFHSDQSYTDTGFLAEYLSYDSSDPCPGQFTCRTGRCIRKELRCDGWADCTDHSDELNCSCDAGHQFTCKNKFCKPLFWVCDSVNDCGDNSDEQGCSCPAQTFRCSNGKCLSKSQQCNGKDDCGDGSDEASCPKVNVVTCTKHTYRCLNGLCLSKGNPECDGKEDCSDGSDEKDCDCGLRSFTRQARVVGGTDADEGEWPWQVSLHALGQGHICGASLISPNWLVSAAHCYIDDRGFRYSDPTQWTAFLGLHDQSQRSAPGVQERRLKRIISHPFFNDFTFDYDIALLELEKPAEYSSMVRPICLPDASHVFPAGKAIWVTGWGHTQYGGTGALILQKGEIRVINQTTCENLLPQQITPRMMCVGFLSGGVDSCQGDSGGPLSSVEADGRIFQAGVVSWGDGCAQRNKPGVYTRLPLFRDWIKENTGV

[3] = Solubility of compound in PBS at pH 7.4 measured for 90 mins by UPLC analysis; type: physicochemical; conditions: buffer, pH 7.4, 1.5 h
[4] = Metabolic stability in Sprague-Dawley rat microsome assessed as intrinsic clearance measured for 120 mins in presence of NADPH by UPLC-MS analysis; type: ADME; conditions: microsomes, 2 h
[5] = molecular target: T2, Suppressor of tumorigenicity 14 protein (Homo sapiens, UniProt Q9Y5Y6); experiment: Binding affinity to recombinant human Matriptase using Boc-QAR-AMC as substrate assessed as inhibition constant by fluorescence based analysis
T2 sequence (Q9Y5Y6 whole entry): T1 sequence (whole entry)

Furin [6] = molecular target: T3, Furin (Homo sapiens, UniProt P09958); experiment: Inhibition of recombinant human furin using Boc-RVRR-AMC as substrate assessed as inhibition constant by fluorescence based analysis
[7] = Apparent Permeability of compound in PBS buffer at pH 7.4 incubated for 17 hrs by PAMPA assay; type: ADME; conditions: pH 7.4, 17 h
Homo sapiens [8] = species on record: Homo sapiens; experiment: (§1) Selectivity index, ratio of Ki for competitive tight binding inhibition of recombinant human Matriptase using Boc-QAR-AMC as substrate assessed as inhibition constant by fluorescence based analysis to Ki for competitive tight binding inhibition of recombinant human TMPRSS6 using Boc-QAR-AMC as substrate assessed as inhibition constant by fluorescence based analysis
Coagulation factor X [9] = molecular target: T4, Coagulation factor X (Homo sapiens, UniProt P00742); experiment: Inhibition of recombinant human FXA using Boc-QAR-AMC as substrate assessed as inhibition constant by fluorescence based analysis
[10] = molecular target: T5, Transmembrane protease serine 6 (Homo sapiens) (UniProt Q8IU80); experiment: Inhibition of recombinant human TMPRSS6 at 100 nM by Michaelis-Menten analysis relative to control
T5 sequence (whole entry): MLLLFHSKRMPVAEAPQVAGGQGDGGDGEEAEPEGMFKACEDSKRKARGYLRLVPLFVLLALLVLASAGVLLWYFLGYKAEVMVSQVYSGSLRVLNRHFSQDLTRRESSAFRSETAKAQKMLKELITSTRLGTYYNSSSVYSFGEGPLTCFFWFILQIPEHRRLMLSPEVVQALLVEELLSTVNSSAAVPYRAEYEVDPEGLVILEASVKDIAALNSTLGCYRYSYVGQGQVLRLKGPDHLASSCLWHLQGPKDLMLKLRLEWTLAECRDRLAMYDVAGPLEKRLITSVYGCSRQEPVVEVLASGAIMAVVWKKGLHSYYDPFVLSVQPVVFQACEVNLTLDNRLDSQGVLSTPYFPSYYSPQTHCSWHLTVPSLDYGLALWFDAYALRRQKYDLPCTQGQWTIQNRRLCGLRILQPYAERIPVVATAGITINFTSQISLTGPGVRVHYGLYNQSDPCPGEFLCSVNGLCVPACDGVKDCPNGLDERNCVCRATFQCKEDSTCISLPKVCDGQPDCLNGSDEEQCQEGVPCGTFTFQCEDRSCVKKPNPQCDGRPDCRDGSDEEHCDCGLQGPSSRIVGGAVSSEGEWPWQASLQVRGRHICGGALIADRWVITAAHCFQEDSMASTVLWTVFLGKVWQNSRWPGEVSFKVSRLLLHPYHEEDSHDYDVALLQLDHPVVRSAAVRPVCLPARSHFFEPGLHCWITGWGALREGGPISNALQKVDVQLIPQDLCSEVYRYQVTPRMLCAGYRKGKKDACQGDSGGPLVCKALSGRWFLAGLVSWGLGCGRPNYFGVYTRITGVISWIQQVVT

[11] = Cytotoxicity against HEK cells assessed as reduction in cell viability measured for 24 hrs by celltiter-glo 2.0 assay; type: toxicity, cell-based; conditions: human
Homo sapiens [12] = species on record: Homo sapiens; experiment: as §1, with “for” for “for competitive tight”, “affinity to” for “inhibition of”
Prothrombin [13] = molecular target: T6, Prothrombin (Homo sapiens, UniProt P00734); experiment: Inhibition of thrombin (unknown origin)
[14] = molecular target: T7, Transmembrane protease serine 6 (Homo sapiens, UniProt Q8IU80); experiment: Binding affinity to recombinant human TMPRSS6 using Boc-QAR-AMC as substrate assessed as inhibition constant by fluorescence based analysis
T7 sequence (Q8IU80 whole entry): T5 sequence (whole entry)

Caco-2 [15] = experiment: Disruption of epithelial integrity in human Caco-2 cells assessed as change in TEER modulation at 10 uM after 8 days; type: functional, cell-based; conditions: time 8.0 day
[16] = molecular target: T2, Suppressor of tumorigenicity 14 protein; experiment: Inhibition of human Matriptase transfected in HEK293SL cells using Boc-QAR-AMC as substrate measured for 24 hrs; type: cell-based
Prothrombin [17] = molecular target: T6, Prothrombin; experiment: Inhibition of recombinant human thrombin using Boc-QAR-AMC as substrate assessed as inhibition constant by fluorescence based analysis
[18] = Stability in Sprague-Dawley rat plasma assessed as parent compound remaining at 24 hrs by UPLC-MS analysis; type: ADME, cell-free
[19] = Metabolic stability in Sprague-Dawley rat microsome assessed as half life measured for 120 mins in presence of NADPH by UPLC-MS analysis; type: ADME; conditions: microsomes, 2 h
Furin [20] = molecular target: T3, Furin; experiment: Inhibition of furin (unknown origin)
Coagulation factor X [21] = molecular target: T4, Coagulation factor X; experiment: Inhibition of FXA (unknown origin)
[22] = molecular target: T7, Transmembrane protease serine 6; experiment: Competitive tight binding inhibition of recombinant human TMPRSS6 using Boc-QAR-AMC as substrate assessed as inhibition constant by fluorescence based analysis
[23] = molecular target: T7, Transmembrane protease serine 6; experiment: Inhibition of human TMPRSS6 transfected in HEK293SL cells using Boc-QAR-AMC as substrate measured for 24 hrs; type: cell-based
[24] = molecular target: T2, Suppressor of tumorigenicity 14 protein; experiment: Competitive tight binding inhibition of recombinant human Matriptase using Boc-QAR-AMC as substrate assessed as inhibition constant by fluorescence based analysis
Homo sapiens [25] = species on record: Homo sapiens; experiment: Selectivity index, ratio of IC50 for inhibition of human Matriptase transfected in HEK293SL cells using Boc-QAR-AMC as substrate to IC50 for inhibition of human TMPRSS6 transfected in HEK293SL cells using Boc-QAR-AMC as substrate; type: cell-based

T4 sequence (P00742 41-179 limits assumed): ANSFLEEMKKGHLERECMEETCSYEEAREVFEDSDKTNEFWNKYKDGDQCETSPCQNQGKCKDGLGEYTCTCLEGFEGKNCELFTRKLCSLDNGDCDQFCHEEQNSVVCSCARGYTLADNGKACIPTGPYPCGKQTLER
T4 sequence (P00742 235-488 limits assumed): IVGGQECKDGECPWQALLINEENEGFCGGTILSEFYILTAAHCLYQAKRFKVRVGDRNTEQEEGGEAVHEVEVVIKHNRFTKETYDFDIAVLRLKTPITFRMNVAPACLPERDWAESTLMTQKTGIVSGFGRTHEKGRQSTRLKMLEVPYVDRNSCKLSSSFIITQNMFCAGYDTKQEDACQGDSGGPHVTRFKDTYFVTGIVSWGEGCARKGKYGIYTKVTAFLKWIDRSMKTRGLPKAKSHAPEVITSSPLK
T3 sequence (P09958 whole entry): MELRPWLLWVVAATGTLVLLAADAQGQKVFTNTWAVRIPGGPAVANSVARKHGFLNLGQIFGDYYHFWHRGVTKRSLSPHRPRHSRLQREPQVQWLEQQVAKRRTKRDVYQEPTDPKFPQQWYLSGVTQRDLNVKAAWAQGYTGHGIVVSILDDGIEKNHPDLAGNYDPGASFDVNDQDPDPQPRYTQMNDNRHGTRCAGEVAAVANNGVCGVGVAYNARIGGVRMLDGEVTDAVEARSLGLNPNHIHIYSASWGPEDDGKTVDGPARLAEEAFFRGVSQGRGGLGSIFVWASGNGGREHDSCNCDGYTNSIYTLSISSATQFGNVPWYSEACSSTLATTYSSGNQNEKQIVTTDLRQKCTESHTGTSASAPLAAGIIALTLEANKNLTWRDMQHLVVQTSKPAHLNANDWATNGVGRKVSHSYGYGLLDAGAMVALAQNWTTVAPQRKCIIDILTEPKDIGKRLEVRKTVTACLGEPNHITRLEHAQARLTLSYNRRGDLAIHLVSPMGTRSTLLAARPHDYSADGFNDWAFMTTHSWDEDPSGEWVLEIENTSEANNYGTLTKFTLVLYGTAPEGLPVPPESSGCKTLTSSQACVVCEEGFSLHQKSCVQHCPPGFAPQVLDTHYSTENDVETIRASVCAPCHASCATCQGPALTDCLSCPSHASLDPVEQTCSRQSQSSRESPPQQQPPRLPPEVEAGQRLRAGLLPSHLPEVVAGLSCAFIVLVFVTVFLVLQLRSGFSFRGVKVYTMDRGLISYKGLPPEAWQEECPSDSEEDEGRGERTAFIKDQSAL

Which IC50 (Caco-2 [1]) does the source give for `CC(C)[C@H](NC(=O)[C@H](Cc1cscn1)NC(=O)CCc1ccccc1)C(=O)N[C@@H](CCCNC(=N)N)C(=O)c1nc2ccccc2s1` here?
The IC50 was 18.1 nM.

And the inhibition [2]?
Its inhibition is 5%.

What about the solubility [3] of the same compound?
The solubility was 250 µM (≈ 169 µg/mL).

What about the CLH [4] of the same compound?
Its CLH is 1.12 µL/min/mg.

And the Ki [5]?
Its Ki is 8.6 nM.

And the Ki (Furin [6])?
Its Ki is > 10000 nM.

What about the Papp [7] of the same compound?
The Papp was 0.004 10^-6 cm/s.

What about the Ratio Ki (Homo sapiens [8]) of the same compound?
Its Ratio Ki is 8.

And the Ki (Coagulation factor X [9])?
The Ki was 2320 nM.

What about the inhibition [10] of the same compound?
The inhibition was 1%.

What about the Activity [11] of the same compound?
The Activity was “Non-Toxic”.

What about the Ratio Ki (Homo sapiens [12]) of the same compound?
Its Ratio Ki is 7.2.

What about the Ki (Prothrombin [13]) of the same compound?
Its Ki is 1100 nM.

And the Ki [14]?
The Ki was 1.2 nM.

And the Activity (Caco-2 [15])?
Its Activity is “Active”.

And the IC50 [16]?
Its IC50 is 18.1 nM.

And the Ki (Prothrombin [17])?
Its Ki is 53 nM.

And the Stability [18]?
Its Stability is 6%.

And the t1/2 [19]?
Its t1/2 is > 2 h.

And the Ki (Furin [20])?
Its Ki is > 30000 nM.

And the Ki (Coagulation factor X [21])?
The Ki was 323 nM.

What about the Ki [22] of the same compound?
Its Ki is 0.6 nM.

And the IC50 [23]?
The IC50 was 4.4 nM.

What about the Ki [24] of the same compound?
Its Ki is 4.8 nM.

What about the Ratio IC50 (Homo sapiens [25]) of the same compound?
The Ratio IC50 was 4.
